Target: NamPT (Homo sapiens (Human), UniProt P43490)
Assay: Measurement of NamPT inhibitory ability IC50 (NamPT colorimetric assay kit, Abcam ab221819)
Type: biochemical
Conditions: NamPT recombinant protein, WST-1 absorbance at 450 nm; class key in μM
Experimental: To test the effect of the compound prepared in each Example on the substrate decomposition rate (Vmax/min) mediated by NamPT enzyme, IC50 was calculated. In this experiment, the NamPT colorimetric assay kit (ab221819) produced by Abcam was used, and Graph prism software was used for IC50 calculation. PRPP, ATP, NMNAT1, NamPT recombinant proteins, and various concentrations of the compound of each Example (half-log step dilution from 100 μM) were added to nicotinamide to synthesize nicotinamide adenine dinucleotide (NAD) from the nicotinamide, and a total of 60 μL of the reaction solution was reacted at room temperature for 1 hour. WST-1 formazan converted by NAD generated by adding WST-1 was measured. The result of the reaction was obtained by the following formula by measuring absorbance using EnVision2105 (PerkinElmer) at 450 nm for 60 minutes at 2-minute intervals.
In Mathematical Formula 1, T1 and T2 are arbitrary times, and A1 and A2 represent the absorbance measured at T1 and T2 at 450 nm, respectively.
The results of measuring the NamPT inhibition activity of the compound of each Example obtained through the above experiment are shown in Table 1 in the unit of IC50 (nM), and the result values are expressed as follows.

Chain of NamPT (P43490 whole entry): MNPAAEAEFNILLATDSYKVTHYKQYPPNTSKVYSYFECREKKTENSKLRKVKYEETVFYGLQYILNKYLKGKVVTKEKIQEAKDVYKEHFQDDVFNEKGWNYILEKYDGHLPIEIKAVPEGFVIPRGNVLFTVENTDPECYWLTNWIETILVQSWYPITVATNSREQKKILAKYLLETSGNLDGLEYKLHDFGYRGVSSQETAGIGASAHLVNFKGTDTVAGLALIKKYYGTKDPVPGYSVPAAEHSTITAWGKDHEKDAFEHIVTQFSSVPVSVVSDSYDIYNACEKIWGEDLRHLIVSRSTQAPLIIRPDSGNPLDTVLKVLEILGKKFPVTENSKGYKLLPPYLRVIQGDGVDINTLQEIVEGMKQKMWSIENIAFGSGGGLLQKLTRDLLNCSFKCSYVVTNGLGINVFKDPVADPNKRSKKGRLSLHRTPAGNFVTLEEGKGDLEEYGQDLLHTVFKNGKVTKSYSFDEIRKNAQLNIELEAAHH

Row | Compound | IC50
1 | CCS(=O)(=O)c1ccc2oc(-c3ccc(CNC(=O)c4cnc5nccn5c4)cc3)nc2c1 [Example 37, N-[[4-(5-ethylsulfonyl-1,3-benzoxazol-2-yl)phenyl]methyl]imidazo[1,2-a]pyrimidin-6-carboxamide] | 0.11 to 1 µM
2 | Cc1ccc2nc(-c3ccc(CNC(=O)c4ccc5nccn5c4)cc3)oc2c1 [Example 61, N-[[4-(6-methyl-1,3-benzoxazol-2-yl)phenyl]methyl]imidazo[1,2-a]pyridin-6-carboxamide] | 0.11 to 1 µM
3 | Nc1ccc2nc(-c3ccc(CNC(=O)c4cnc5nccn5c4)cc3)oc2c1 [Example 26, N-[[4-(6-amino-1,3-benzoxazol-2-yl)phenyl]methyl]imidazo[1,2-a]pyrimidin-6-carboxamide] | 0.051 to 0.1 µM
4 | Cc1ccc2nc(-c3ccc(CNC(=O)c4cnc5nccn5c4)nc3)oc2c1 [Example 28, N-[[5-(6-methyl-1,3-benzoxazol-2-yl)-2-pyridyl]methyl]imidazo[1,2-a]pyrimidin-6-carboxamide] | 0.11 to 1 µM
5 | Nc1ccc2oc(-c3ccc(CNC(=O)c4cnc5nccn5c4)cc3)nc2c1 [Example 46, N-[[4-(5-amino-1,3-benzoxazol-2-yl)phenyl]methyl]imidazo[1,2-a]pyrimidin-6-carboxamide] | 0.051 to 0.1 µM
6 | O=C(NCc1ccc(-c2nc3ccc(-c4ccccc4)cc3o2)cc1)c1cnc2nccn2c1 [Example 59, N-[[4-(6-phenyl-1,3-benzoxazol-2-yl)phenyl]methyl]imidazo[1,2-a]pyrimidin-6-carboxamide] | > 1 µM
7 | O=C(NCc1ccc(-c2nc3cnccc3o2)cc1)c1cnc2nccn2c1 [Example 36, N-[(4-oxazolo[4,5-c]pyridin-2-ylphenyl)methyl]imidazo[1,2-a]pyrimidin-6-carboxamide] | 0.11 to 1 µM
8 | Cc1cccc2nc(-c3ccc(CNC(=O)c4cnc5nccn5c4)cc3)oc12 [Example 21, N-[[4-(7-methyl-1,3-benzoxazol-2-yl)phenyl]methyl]imidazo[1,2-a]pyrimidin-6-carboxamide] | 0.11 to 1 µM
9 | O=C(O)c1ccc2nc(-c3ccc(CNC(=O)c4cnc5nccn5c4)cc3)oc2c1 [Example 5, 2-[4-[(imidazo[1,2-a]pyrimidin-6-carbonylamino)methyl]phenyl]-1,3-benzoxazol-6-carboxylic acid] | 0.11 to 1 µM
10 | Cc1ccc2nc(-c3ccc(CNC(=O)c4cnc5nccn5c4)cc3)oc2c1 [Example 1, N-[[4-(6-methyl-1,3-benzoxazol-2-yl)phenyl]methyl]imidazo[1,2-a]pyrimidin-6-carboxamide] | 0.051 to 0.1 µM
11 | Cc1ccc2nc(-c3ccc(C(C)NC(=O)c4cnc5nccn5c4)cc3)oc2c1 (stereo not shown) [Example 64, N-[1-[4-(6-methyl-1,3-benzooxazol-2-yl)phenyl]ethyl]imidazo[1,2-a]pyrimidin-6-carboxamide] | > 1 µM
12 | O=C(NCc1ccc(-c2nc3cnc(Cl)cc3o2)cc1)c1cnc2nccn2c1 [Example 62] | 0.051 to 0.1 µM
13 | O=C(NCc1ccc(-c2nc3cc(-c4ccccc4)ccc3o2)cc1)c1cnc2nccn2c1 [Example 56, N-[[4-(5-phenyl-1,3-benzoxazol-2-yl)phenyl]methyl]imidazo[1,2-a]pyrimidin-6-carboxamide] | 0.11 to 1 µM
14 | Cc1cccc2oc(-c3ccc(CNC(=O)c4cnc5nccn5c4)cc3)nc12 [Example 20, N-[[4-(4-methyl-1,3-benzoxazol-2-yl)phenyl]methyl]imidazo[1,2-a]pyrimidin-6-carboxamide] | 0.11 to 1 µM
15 | O=C(NCc1ccc(-c2nc3ccc(Oc4ccccc4)cc3o2)cc1)c1cnc2nccn2c1 [Example 57, N-[[4-(6-phenoxy-1,3-benzoxazol-2-yl)phenyl]methyl]imidazo[1,2-a]pyrimidin-6-carboxamide] | > 1 µM
16 | CCCOc1ccc2oc(-c3ccc(CNC(=O)c4cnc5nccn5c4)cc3)nc2c1 [Example 54, N-[[4-(5-propoxy-1,3-benzoxazol-2-yl)phenyl]methyl]imidazo[1,2-a]pyrimidin-6-carboxamide] | 0.051 to 0.1 µM
17 | O=C(NCc1ccc(-c2nc3ccc(Cl)cc3s2)cc1)c1cnc2nccn2c1 [Example 50, N-[[4-(6-chloro-1,3-benzothiazol-2-yl)phenyl]methyl]imidazo[1,2-a]pyrimidin-6-carboxamide] | 0.051 to 0.1 µM
18 | Cc1ccc2nc(-c3ccc(CNC(=O)c4cnc5nccn5c4)c(F)c3)oc2c1 [Example 35, N-[[2-fluoro-4-(6-methyl-1,3-benzoxazol-2-yl)phenyl]methyl]imidazo[1,2-a]pyrimidin-6-carboxamide] | < 0.05 µM
19 | O=C(NCc1ccc(-c2nc3cc(OCc4ccccc4)ccc3o2)cc1)c1cnc2nccn2c1 [Example 55, N-[[4-(5-benzyloxy-1,3-benzoxazol-2-yl)phenyl]methyl]imidazo[1,2-a]pyrimidin-6-carboxamide] | > 1 µM

The remaining lines, values ahead:

Row | IC50 | Compound
20 | < 0.05 µM | COc1ccc2sc(-c3ccc(CNC(=O)c4cnc5nccn5c4)cc3)nc2c1 [Example 51, N-[[4-(5-methoxy-1,3-benzothiazol-2-yl)phenyl]methyl]imidazo[1,2-a]pyrimidin-6-carboxamide]
21 | < 0.05 µM | O=C(NCc1ccc(-c2nc3ccc(Cl)cc3o2)cn1)c1cnc2nccn2c1 [Example 63, N-[[5-(6-chloro-1,3-benzoxazol-2-yl)-2-pyridyl]methyl]imidazo[1,2-a]pyrimidin-6-carboxamide]
22 | < 0.05 µM | CCS(=O)(=O)c1ccc2nc(-c3ccc(CNC(=O)c4cnc5nccn5c4)cc3)oc2c1 [Example 14, N-[[4-(6-ethylsulfonyl-1,3-benzoxazol-2-yl)phenyl]methyl]imidazo[1,2-a]pyrimidin-6-carboxamide]
23 | < 0.05 µM | O=C(NCc1ccc(-c2nc3ccc(Cl)nc3o2)cc1)c1cnc2nccn2c1 [Example 60, N-[[4-(5-chlorooxazolo[5,4-b]pyridin-2-yl)phenyl]methyl]imidazo[1,2-a]pyrimidin-6-carboxamide]
24 | < 0.05 µM | O=C(NCc1ccc(-c2nc3cc(O)ccc3o2)cc1)c1cnc2nccn2c1 [Example 23, N-[[4-(5-hydroxy-1,3-benzoxazol-2-yl)phenyl]methyl]imidazo[1,2-a]pyrimidin-6-carboxamide]
25 | < 0.05 µM | O=C(NCc1ccc(-c2nc3cc(Cl)ccc3o2)cc1)c1cnc2nccn2c1 [Example 16, N-[[4-(5-chloro-1,3-benzoxazol-2-yl)phenyl]methyl]imidazo[1,2-a]pyrimidin-6-carboxamide]
26 | < 0.05 µM | O=C(NCc1ccc(-c2nc3cc(Cl)c(C(F)(F)F)cc3o2)cc1)c1cnc2nccn2c1 [Example 42, N-[[4-[5-chloro-6-(trifluoromethyl)-1,3-benzoxazol-2-yl]phenyl]methyl]imidazo[1,2-a]pyrimidin-6-carboxamide]
27 | < 0.05 µM | O=C(NCc1ccc(-c2nc3cc(F)c(F)cc3o2)cc1)c1cnc2nccn2c1 [Example 39, N-[[4-(5,6-difluoro-1,3-benzoxazol-2-yl)phenyl]methyl]imidazo[1,2-a]pyrimidin-6-carboxamide]
28 | < 0.05 µM | O=C(NCc1ccc(-c2nc3ccc(Oc4cccnc4)cc3o2)cc1)c1cnc2nccn2c1 [Example 58, N-[[4-[6-(3-pyridyloxy)-1,3-benzoxazol-2-yl]phenyl]methyl]imidazo[1,2-a]pyrimidin-6-carboxamide]
29 | < 0.05 µM | O=C(NCc1ccc(-c2nc3cc(C(F)(F)F)c(Cl)cc3o2)cc1)c1cnc2nccn2c1 [Example 41, N-[[4-[6-chloro-5-(trifluoromethyl)-1,3-benzoxazol-2-yl]phenyl]methyl]imidazo[1,2-a]pyrimidin-6-carboxamide]
30 | < 0.05 µM | CCc1ccc2oc(-c3ccc(CNC(=O)c4cnc5nccn5c4)cc3)nc2c1 [Example 44, N-[[4-(5-ethyl-1,3-benzoxazol-2-yl)phenyl]methyl]imidazo[1,2-a]pyrimidin-6-carboxamide]
31 | < 0.05 µM | Cc1ccc2nc(-c3ccc(CNC(=O)c4cnc5nccn5c4)cc3)sc2c1 [Example 8, N-[[4-(6-methyl-1,3-benzothiazol-2-yl)phenyl]methyl]imidazo[1,2-a]pyrimidin-6-carboxamide]
32 | < 0.05 µM | O=C(NCc1ccc(-c2nc3cc(CO)ccc3o2)cc1)c1cnc2nccn2c1 [Example 30, N-[[4-[5-(hydroxymethyl)-1,3-benzoxazol-2-yl]phenyl]methyl]imidazo[1,2-a]pyrimidin-6-carboxamide]
33 | < 0.05 µM | COc1ccc2oc(-c3ccc(CNC(=O)c4cnc5nccn5c4)cc3)nc2c1 [Example 7, N-[[4-(5-methoxy-1,3-benzoxazol-2-yl)phenyl]methyl]imidazo[1,2-a]pyrimidin-6-carboxamide]
34 | < 0.05 µM | O=C(NCc1ccc(-c2nc3c(F)cc(F)cc3o2)cc1)c1cnc2nccn2c1 [Example 40, N-[[4-(4,6-difluoro-1,3-benzoxazol-2-yl)phenyl]methyl]imidazo[1,2-a]pyrimidin-6-carboxamide]
35 | < 0.05 µM | CCc1ccc2nc(-c3ccc(CNC(=O)c4cnc5nccn5c4)cc3)oc2c1 [Example 45, N-[[4-(6-ethyl-1,3-benzoxazol-2-yl)phenyl]methyl]imidazo[1,2-a]pyrimidin-6-carboxamide]
36 | < 0.05 µM | O=C(NCc1ccc(-c2nc3cc(Oc4ccccc4)ccc3o2)cc1)c1cnc2nccn2c1 [Example 53, N-[[4-(5-phenoxy-1,3-benzoxazol-2-yl)phenyl]methyl]imidazo[1,2-a]pyrimidin-6-carboxamide]
37 | < 0.05 µM | O=C(NCc1ccc(-c2nc3cc(Cl)ccc3s2)cc1)c1cnc2nccn2c1 [Example 49, N-[[4-(5-chloro-1,3-benzothiazol-2-yl)phenyl]methyl]imidazo[1,2-a]pyrimidin-6-carboxamide]
